Source: ChEMBL document CHEMBL1158628, “Quinlobelane: a water-soluble lobelane analogue and inhibitor of VMAT2” (Bioorg Med Chem Lett, 2010)

Key:
[1] = target: T1, Synaptic vesicular amine transporter (Rattus norvegicus, UniProt Q01827); assay: Displacement of [3H]DTBZ from VMAT2 in rat synaptic vesicle membranes after 30 mins by liquid scintillation counting; format: cell membranes, Membrane
[2] = target: T1, Synaptic vesicular amine transporter; assay: Inhibition of VMAT2-mediated [3H]dopamine uptake in rat synaptic vesicle membranes; format: cell membranes, Membrane
[3] = Aqueous solubility in water; format: physicochemical

T1 sequence (Q01827 whole entry): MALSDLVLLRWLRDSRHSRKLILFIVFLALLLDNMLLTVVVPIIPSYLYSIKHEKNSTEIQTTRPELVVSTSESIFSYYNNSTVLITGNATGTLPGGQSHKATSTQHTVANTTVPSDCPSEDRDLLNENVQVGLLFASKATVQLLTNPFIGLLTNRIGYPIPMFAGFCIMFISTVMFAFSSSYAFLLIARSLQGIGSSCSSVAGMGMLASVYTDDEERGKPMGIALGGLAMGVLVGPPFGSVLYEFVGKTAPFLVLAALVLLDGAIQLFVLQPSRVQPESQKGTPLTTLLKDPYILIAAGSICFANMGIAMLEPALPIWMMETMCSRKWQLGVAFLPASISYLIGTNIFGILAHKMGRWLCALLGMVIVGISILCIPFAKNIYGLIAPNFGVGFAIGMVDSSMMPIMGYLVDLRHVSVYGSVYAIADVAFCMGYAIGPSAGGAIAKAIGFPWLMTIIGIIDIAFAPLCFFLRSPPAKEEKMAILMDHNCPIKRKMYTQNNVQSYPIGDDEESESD

| SMILES | Ki [1] [µM] | Ki [2] [µM] | solubility [3] [µg/mL] |
| --- | --- | --- | --- |
| CN1[C@@H](CCc2ccc3ccccc3n2)CCC[C@H]1CCc1ccc2ccccc2n1 | 0.96 | 0.067 | – |
| CN1[C@@H](CCc2c[nH]c3ccccc23)CCC[C@H]1CCc1c[nH]c2ccccc12 | 26 | 2.13 | – |
| CN1[C@@H](CCc2ccncc2)CCC[C@H]1CCc1ccncc1 | 5.87 | 5.23 | – |
| CN1[C@@H](CCc2ccccc2)CCC[C@H]1CCc1ccccc1.O=S(=O)(O)O | – | – | 300 |
| CN1[C@@H](CCc2cccnc2)CCC[C@H]1CCc1cccnc1 | 33.3 | 3.72 | – |
| CN1[C@@H](CCc2ccnc3ccccc23)CCC[C@H]1CCc1ccnc2ccccc12.Cl [QUINLOBELANE] | 2.64 | 0.051 | ≥ 20000 |
